From patent US20210323981A1, “FREE AMINO COMPOUNDS FOR THE TREATMENT AND PROPHYLAXIS OF BACTERIAL INFECTION” (Hoffmann-La Roche Inc., priority 2018, published 2021)

What was measured:
Type in all cases: cell-based
[1] = system: A. baumannii (ATCC17978); test: 50% growth inhibitory concentration (IC50) determination assay, A. baumannii; conditions: Acinetobacter baumannii, growth inhibition, Iso-Sensitest broth, OD 600 nm over 16 h, <0.098 = detection limit
Procedure: (§1) The in vitro antimicrobial activity of the compounds against S. aureus (ATCC29213), K. pneumoniae (ATCC10031), and A. baumannii (ATCC17978), was determined according to the following procedure: The assay used a 10-points Iso-Sensitest broth medium to measure quantitatively the in vitro activity of the compounds against S. aureus ATCC29213, K. pneumoniae ATCC 10031, and A. baumannii ATCC17978. Stock compounds in DMSO were serially two-fold diluted (range from 50 to 0.097 μM final concentration) in 384 wells microtiter plates and inoculated with 49 μL the bacterial suspension in Iso-Sensitest broth medium to have a final cell concentration of ˜5×10^5 CFU/mL in a final volume/well of 50 μL/well. Microtiter plates were incubated at 35±2° C. Bacterial cell growth was determined with the measurement of optical density at k=600 nm each 20 minutes over a time course of 16 h. Growth inhibition was calculated during the logarithmic growth of the bacterial cells with determination of the concentration inhibiting 50% (IC50) of the growth.

[2] = system: K. pneumoniae (ATCC10031); test: 50% growth inhibitory concentration (IC50) determination assay, K. pneumoniae; conditions: Klebsiella pneumoniae, growth inhibition, Iso-Sensitest broth, OD 600 nm over 16 h, <0.098 μM = detection limit
Procedure: as §1

[3] = system: S. aureus (ATCC29213); test: 50% growth inhibitory concentration (IC50) determination assay, S. aureus; conditions: Staphylococcus aureus, growth inhibition, Iso-Sensitest broth, OD 600 nm over 16 h, <0.098 μM = detection limit
Procedure: as §1

SMILES: CNc1cc(F)c(F)c2c1[nH]c1ncc(-c3cnc4c(c3)c(=O)c(C(=O)O)cn4C)c(N3C[C@H]4CCC[C@@]4(N)C3)c12 (stereo in doubt) [Example 1.12, trans-6-(5,6-Difluoro-8-(methylamino)-4-[3a-amino-1,3,4,5,6,6a-hexahydrocyclopenta[c]pyrrol-2-yl]-9H-pyrido[2,3-b]indol-3-yl)-1-methyl-4-oxo-1,8-naphthyridine-3-carboxylic acid]
- IC50 [1]: 0.889 µM
- IC50 [2]: < 0.098 µM
- IC50 [3]: 0.448 µM

SMILES: CNc1cc(F)c(F)c2c1[nH]c1ncc(-c3cnc4c(c3)c(=O)c(C(=O)O)cn4C)c(N3CC4(CCC4N)C3)c12 (stereo not drawn) [Example 1.02, 6-[4-(7-Amino-2-azaspiro[3.3]heptan-2-yl)-5,6-difluoro-8-(methylamino)-9H-pyrido[2,3-b]indol-3-yl]-1-methyl-4-oxo-1,8-naphthyridine-3-carboxylic acid]
- IC50 [1]: 2.86 µM
- IC50 [2]: < 0.098 µM
- IC50 [3]: 3.89 µM

SMILES: CCn1cc(C(=O)O)c(=O)c2cc(-c3cnc4[nH]c5c(NC)cc(F)c(F)c5c4c3N3CCC(N)C3)cnc21 (stereo not drawn) [Example 1.03, 6-[4-(3-Aminopyrrolidin-1-yl)-5,6-difluoro-8-(methylamino)-9H-pyrido[2,3-b]indol-3-yl]-1-ethyl-4-oxo-1,8-naphthyridine-3-carboxylic acid]
- IC50 [1]: 1.49 µM
- IC50 [2]: < 0.098 µM
- IC50 [3]: 0.944 µM

SMILES: CCn1cc(C(=O)O)c(=O)c2cc(-c3cnc4[nH]c5c(NC)cc(F)c(F)c5c4c3N3CCC(CN)C3)cnc21 (stereo not drawn) [Example 1.04, 6-(4-(3-(Aminomethyl)pyrrolidin-1-yl)-5,6-difluoro-8-(methylamino)-9H-pyrido[2,3-b]indol-3-yl)-1-ethyl-4-oxo-1,4-dihydro-1,8-naphthyridine-3-carboxylic acid]
- IC50 [1]: 1.33 µM
- IC50 [2]: 0.11 µM
- IC50 [3]: 0.572 µM

SMILES: CNc1cc(F)c(F)c2c1[nH]c1ncc(-c3cnc4c(c3)c(=O)c(C(=O)O)cn4C)c(N3CC4CC4(CN)C3)c12 (stereo not drawn) [Example 1.06, 6-[4-[1-(Aminomethyl)-3-azabicyclo[3.1.0]hexan-3-yl]-5,6-difluoro-8-(methylamino)-9H-pyrido[2,3-b]indol-3-yl]-1-methyl-4-oxo-1,8-naphthyridine-3-carboxylic acid]
- IC50 [1]: 2.48 µM
- IC50 [2]: < 0.098 µM
- IC50 [3]: 0.342 µM

SMILES: CNc1cc(F)c(F)c2c1[nH]c1ncc(-c3cnc4c(c3)c(=O)c(C(=O)O)cn4C)c(N3C[C@@H]4[C@@H](N)[C@@H]4C3)c12 [Example 1.08, 6-[5,6-Difluoro-8-(methylamino)-4-[rel-(1S,5R)-6-amino-3-azabicyclo[3.1.0]hexan-3-yl]-9H-pyrido[2,3-b]indol-3-yl]-1-methyl-4-oxo-1,8-naphthyridine-3-carboxylic acid]
- IC50 [1]: 0.654 µM
- IC50 [2]: < 0.098 µM
- IC50 [3]: 0.314 µM

SMILES: CNc1cc(F)c(F)c2c1[nH]c1ncc(-c3cnc4c(c3)c(=O)c(C(=O)O)cn4C)c(N3CCCC3CN)c12 (stereo not drawn) [Example 1.09, 6-[4-[2-(Aminomethyl)pyrrolidin-1-yl]-5,6-difluoro-8-(methylamino)-9H-pyrido[2,3-b]indol-3-yl]-1-methyl-4-oxo-1,8-naphthyridine-3-carboxylic acid]
- IC50 [1]: 3.72 µM
- IC50 [2]: 0.25 µM
- IC50 [3]: 0.513 µM

SMILES: CNc1cc(F)c(F)c2c1[nH]c1ncc(-c3cnc4c(c3)c(=O)c(C(=O)O)cn4C)c(N3CCC(CN)C3)c12 (stereo not drawn) [Example 1.11, 6-[4-[3-(Aminomethyl)pyrrolidin-1-yl]-5,6-difluoro-8-(methylamino)-9H-pyrido[2,3-b]indol-3-yl]-1-methyl-4-oxo-1,8-naphthyridine-3-carboxylic acid]
- IC50 [1]: 3.62 µM
- IC50 [2]: < 0.098 µM
- IC50 [3]: 0.294 µM

SMILES: CNc1cc(F)c(F)c2c1[nH]c1ncc(-c3cnc4c(c3)c(=O)c(C(=O)O)cn4C)c(N3CC[C@@H](N)C3)c12 [Example 1.17, 6-[4-[(3R)-3-Aminopyrrolidin-1-yl]-5,6-difluoro-8-(methylamino)-9H-pyrido[2,3-b]indol-3-yl]-1-methyl-4-oxo-1,8-naphthyridine-3-carboxylic acid]
- IC50 [1]: 2.95 µM
- IC50 [2]: < 0.098 µM
- IC50 [3]: 0.532 µM

SMILES: CNc1cc(F)c(F)c2c1[nH]c1ncc(-c3cnc4c(c3)c(=O)c(C(=O)O)cn4C)c(N3CC[C@]4(C[C@@H]4N)C3)c12 [Example 3.04, 6-[4-[(2S,3S)-2-Amino-5-azaspiro[2.4]heptan-5-yl]-5,6-difluoro-8-(methylamino)-9H-pyrido[2,3-b]indol-3-yl]-1-methyl-4-oxo-1,8-naphthyridine-3-carboxylic acid]
- IC50 [1]: 0.175 µM
- IC50 [2]: < 0.098 µM
- IC50 [3]: < 0.098 µM

SMILES: CNc1cc(F)c(Cl)c2c1[nH]c1ncc(-c3cnc4c(c3)c(=O)c(C(=O)O)cn4C)c(N3CC[C@@]4(C[C@H]4N)C3)c12 [Example 4.01, 6-[4-[(2R,3R)-2-Amino-5-azaspiro[2.4]heptan-5-yl]-5-chloro-6-fluoro-8-(methylamino)-9H-pyrido[2,3-b]indol-3-yl]-1-methyl-4-oxo-1,8-naphthyridine-3-carboxylic acid]
- IC50 [1]: 0.0765 µM
- IC50 [2]: < 0.098 µM
- IC50 [3]: < 0.098 µM

SMILES: CNc1cc(F)c(Cl)c2c1[nH]c1ncc(-c3cnc4c(c3)c(=O)c(C(=O)O)cn4C)c(N3CC[C@]4(C[C@@H]4N)C3)c12 [Example 4.02, 6-[4-[(2S,3S)-2-amino-5-azaspiro[2.4]heptan-5-yl]-5-chloro-6-fluoro-8-(methylamino)-9H-pyrido[2,3-b]indol-3-yl]-1-methyl-4-oxo-1,8-naphthyridine-3-carboxylic acid]
- IC50 [1]: 0.0973 µM
- IC50 [2]: < 0.098 µM
- IC50 [3]: < 0.098 µM

SMILES: CNc1cc(F)c(Cl)c2c1[nH]c1ncc(-c3cnc4c(c3)c(=O)c(C(=O)O)cn4C)c(N3CC[C@@]4(C[C@@H]4N)C3)c12 [Example 4.03, 6-[4-[(2S,3R)-2-amino-5-azaspiro[2.4]heptan-5-yl]-5-chloro-6-fluoro-8-(methylamino)-9H-pyrido[2,3-b]indol-3-yl]-1-methyl-4-oxo-1,8-naphthyridine-3-carboxylic acid]
- IC50 [1]: 0.0553 µM
- IC50 [2]: < 0.098 µM
- IC50 [3]: < 0.098 µM

SMILES: CNc1cc(F)c(Cl)c2c1[nH]c1ncc(-c3cnc4c(c3)c(=O)c(C(=O)O)cn4C)c(N3CC[C@]4(C[C@H]4N)C3)c12 [Example 4.04, 6-[4-[(2R,3S)-2-amino-5-azaspiro[2.4]heptan-5-yl]-5-chloro-6-fluoro-8-(methylamino)-9H-pyrido[2,3-b]indol-3-yl]-1-methyl-4-oxo-1,8-naphthyridine-3-carboxylic acid]
- IC50 [1]: 0.0793 µM
- IC50 [2]: < 0.098 µM
- IC50 [3]: < 0.098 µM

SMILES: CNc1cc(F)c(C#N)c2c1[nH]c1ncc(-c3cnc4c(c3)c(=O)c(C(=O)O)cn4C)c(N3CC[C@@]4(C[C@@H]4N)C3)c12 [Example 5.01, 6-[4-[(2S,3R)-2-Amino-5-azaspiro[2.4]heptan-5-yl]-5-cyano-6-fluoro-8-(methylamino)-9H-pyrido[2,3-b]indol-3-yl]-1-methyl-4-oxo-1,8-naphthyridine-3-carboxylic acid]
- IC50 [1]: 0.477 µM
- IC50 [2]: < 0.098 µM
- IC50 [3]: < 0.098 µM

SMILES: CNc1cc(F)c(C#N)c2c1[nH]c1ncc(-c3cnc4c(c3)c(=O)c(C(=O)O)cn4C)c(N3CC[C@]4(C[C@H]4N)C3)c12 [Example 5.02, 6-[4-[(2R,3S)-2-amino-5-azaspiro[2.4]heptan-5-yl]-5-cyano-6-fluoro-8-(methylamino)-9H-pyrido[2,3-b]indol-3-yl]-1-methyl-4-oxo-1,8-naphthyridine-3-carboxylic acid]
- IC50 [1]: 0.417 µM
- IC50 [2]: < 0.098 µM
- IC50 [3]: < 0.098 µM

SMILES: CNc1cc(F)c(C#N)c2c1[nH]c1ncc(-c3cnc4c(c3)c(=O)c(C(=O)O)cn4C)c(N3CC[C@]4(C[C@@H]4N)C3)c12 [Example 5.03, 6-[4-[(2S,3S)-2-amino-5-azaspiro[2.4]heptan-5-yl]-5-cyano-6-fluoro-8-(methylamino)-9H-pyrido[2,3-b]indol-3-yl]-1-methyl-4-oxo-1,8-naphthyridine-3-carboxylic acid]
- IC50 [1]: 0.497 µM
- IC50 [2]: < 0.098 µM
- IC50 [3]: < 0.098 µM
